In patent US6264916A, “N,N-dimethyldiatrizoic acid and its conjugates as hepatobiliary agents for x-ray CT imaging” (Bracco Research, USA, priority 2000, dated 2001):
Like-named read-outs stand apart in the source and are kept apart here.

Assay: Biodistribution studies in mice (radioiodinated compounds, % ID/g-tissue)
Type: in vivo
Settings: tracer level, but MDTA-Na 0.18M and MDTA-NMG 0.19M; for tissue uptake at 1 min / tissue uptake at 5 min / tissue uptake at 1 h: mouse, iv
Protocol: All of the new analogs were radiolabeled in order to determine their physical and biological properties. The iodinated compounds were exchange-labeled by heating with Na^125 I in the presence of CuSO4 and Na2 S2 O5 in glacial acetic acid at 135-150° C. for 1 h, followed by HPLC purification using a nucleosil C18 column and CH3 CN--H2 O containing 0.1% TFA as an eluent. In some cases (e.g. the compound of Example 12) the radioiodination was carried out by heating with Na*I in HOAc--NaOAc (pH 4.6) at 100° C. for 15 min. In all cases radiolabeled compounds of acceptable radiochemical purity and specific activity were obtained.
The compound of formula I, N,N-dimethyl-diatrizoic acid, was similarly radiolabeled for biological studies.
a) For intravenous administration the preferred vehicle for the compounds of formula I, II and III is bovine serum albumin, however, other physiologically acceptable vehicles may also be used.
Biodistribution studies were conducted in mice and the results are given in Table I. X-Ray CT images of MDTA in mice and rats indicate that these hydrophobic diatrizoate analogs may be of promise for liver imaging.

[1] = blood, blood, 1', read-out: Biodistribution, Blood 1'
[2] = blood, blood, 5', read-out: Biodistribution, Blood 5'
[3] = blood, blood, 60', read-out: Biodistribution, Blood 60'
[4] = kidney, kidney, 1', read-out: Biodistribution, Kidney 1'
[5] = kidney, kidney, 5', read-out: Biodistribution, Kidney 5'
[6] = kidney, kidney, 60', read-out: Biodistribution, Kidney 60'
[7] = liver, liver, 1', read-out: Biodistribution, Liver 1'
[8] = liver, liver, 5', read-out: Biodistribution, Liver 5'
[9] = liver, liver, 60', read-out: Biodistribution, Liver 60'
[10] = small/large intestine, small/large intestine, 1', read-out: Biodistribution, Sm/Lrg. Intestine 1'
[11] = small/large intestine, small/large intestine, 5', read-out: Biodistribution, Sm/Lrg. Intestine 5'
[12] = small/large intestine, small/large intestine, 60', read-out: Biodistribution, Sm/Lrg. Intestine 60'

Molecule | tissue uptake at 1 min [1] [%ID/g] | tissue uptake at 5 min [2] [%ID/g] | tissue uptake at 1 h [3] [%ID/g] | tissue uptake at 1 min [4] [%ID/g] | tissue uptake at 5 min [5] [%ID/g] | tissue uptake at 1 h [6] [%ID/g] | tissue uptake at 1 min [7] [%ID/g] | tissue uptake at 5 min [8] [%ID/g] | tissue uptake at 1 h [9] [%ID/g] | tissue uptake at 1 min [10] [%ID/g] | tissue uptake at 5 min [11] [%ID/g] | tissue uptake at 1 h [12] [%ID/g] | other results
CC(=O)N(C)c1c(I)c(C(=O)Nc2ccc(CCCCCCCCCCCCCCCCCCC(=O)O)cc2)c(I)c(N(C)C(C)=O)c1I [Example F19-P-MDTA] | 36.7 | 13.2 | 0.68 | 5.56 | 5.45 | 2.67 | 17.2 | 24.7 | 10.4 | 1.05 | 2.4 | 14.4 | 
9(10)-N-(4-(((3,5-Bis-(acetylmethylamino)-2,4,6-triiodophenyl)carbonyl)amino)benzoyl)amino-octadecanoic acid [9/10-F-18P-MDTA] |  |  |  |  |  |  |  |  |  |  |  |  | Biodistribution, Blood 1' (blood, 1', 1 min): 6.16 % ID/g-tissue; Biodistribution, Blood 5' (blood, 5', 5 min): 0.46 % ID/g-tissue; Biodistribution, Blood 60' (blood, 60', 60 min): 0.26 % ID/g-tissue; Biodistribution, Kidney 1' (kidney, 1', 1 min): 3.32 % ID/g-tissue; Biodistribution, Kidney 5' (kidney, 5', 5 min): 2.09 % ID/g-tissue; Biodistribution, Kidney 60' (kidney, 60', 60 min): 0.39 % ID/g-tissue; Biodistribution, Liver 1' (liver, 1', 1 min): 30.29 % ID/g-tissue; Biodistribution, Liver 5' (liver, 5', 5 min): 32.33 % ID/g-tissue; Biodistribution, Liver 60' (liver, 60', 60 min): 3.16 % ID/g-tissue; Biodistribution, Sm/Lrg. Intestine 1' (small/large intestine, 1', 1 min): 0.51 % ID/g-tissue; Biodistribution, Sm/Lrg. Intestine 5' (small/large intestine, 5', 5 min): 2.71 % ID/g-tissue; Biodistribution, Sm/Lrg. Intestine 60' (small/large intestine, 60', 60 min): 20.21 % ID/g-tissue
CC(=O)N(C)c1c(I)c(C(=O)NCCCCCCC(=O)O)c(I)c(N(C)C(C)=O)c1I [Example F7-DP-MDTA] | 2.44 | 0.57 | 0.05 | 9.5 | 8.33 | 0.16 | 17.1 | 9.81 | 0.77 | 4.92 | 14.5 | 22.2 | 
CC(=O)N(C)c1c(I)c(C(=O)NCCCC(=O)O)c(I)c(N(C)C(C)=O)c1I [Example F4-DP-MDTA, 4-[[[3,5-Bis(acetylmethylamino)-2,4,6-triiodophenyl]carbonyl]amino]-butanoic acid] | 4.91 | 0.82 | 0.12 | 17.9 | 7.89 | 0.05 | 16.1 | 11.9 | 0.33 | 1.73 | 11.3 | 21.2 | 
CC(=O)N(C)c1c(I)c(C(=O)NCC(=O)O)c(I)c(N(C)C(C)=O)c1I [Example F2-DP-MDTA, 4-[[[3,5-Bis(acetylmethylamino)-2,4,6-triiodophenyl]carbonyl]amino]-acetic acid] | 4.57 | 0.81 | 0.03 | 17.1 | 5.69 | 0.16 | 12.8 | 10.6 | 1.03 | 1.28 | 8.81 | 16.5 | 
CC(=O)N(C)c1c(I)c(C(=O)O)c(I)c(N(C)C(C)=O)c1I [MDTA, 3,5-Bis-(Acetylmethylamino)-2,4,6-triiodobenzoic acid] | 4.56 |  |  |  | 21.5 |  | 15.8 | 15.4 |  | 1.5 | 4.55 | 13.3 | Biodistribution, Blood 5' (blood, 5', 5 min): 1.21 % ID/g-tissue; Biodistribution, Blood 60' (blood, 60'): 0.00 % ID/g-tissue; Biodistribution, Kidney 1' (kidney, 1', 1 min): 37.57 % ID/g-tissue; Biodistribution, Kidney 60' (kidney, 60', 60 min): 0.18 % ID/g-tissue; Biodistribution, Liver 60' (liver, 60', 60 min): 0.85 % ID/g-tissue

Second part, led by results:

tissue uptake at 1 min [1] [%ID/g] | tissue uptake at 5 min [2] [%ID/g] | tissue uptake at 1 h [3] [%ID/g] | tissue uptake at 1 min [4] [%ID/g] | tissue uptake at 5 min [5] [%ID/g] | tissue uptake at 1 h [6] [%ID/g] | tissue uptake at 1 min [7] [%ID/g] | tissue uptake at 5 min [8] [%ID/g] | tissue uptake at 1 h [9] [%ID/g] | tissue uptake at 1 min [10] [%ID/g] | tissue uptake at 5 min [11] [%ID/g] | tissue uptake at 1 h [12] [%ID/g] | Molecule | other results
3.55 | 0.57 | 0.07 | 5.63 | 5.41 | 0.63 | 29.6 | 29.4 | 6.13 | 1.71 | 4.56 | 20.4 | CC(=O)N(C)c1c(I)c(C(=O)Nc2ccc(CCCC(=O)O)cc2)c(I)c(N(C)C(C)=O)c1I [Example F4-P-MDTA, 4-(((3,5-Bis(acetylmethylamino)-2,4,6-triiodophenyl)carbonyl)amino)benzenebutyric acid] | 
2.38 | 0.57 | 0.15 | 4.28 | 2.94 | 0.3 | 39.5 | 37.2 | 5.02 | 1.38 | 6.2 | 26.8 | CC(=O)N(C)c1c(I)c(C(=O)Nc2ccc(CCCCCCC(=O)O)cc2)c(I)c(N(C)C(C)=O)c1I [Example F7-P-MDTA, 4-[[[3,5-Bis(acetylmethylamino)-2,4,6-triiodophenyl]carbonyl]amino]benzeneheptanoic acid] | 
24.6 | 4.28 | 0.12 | 8.28 | 5.1 | 0.34 | 46.4 | 76.3 | 6.18 | 2.13 | 4.85 | 43.7 | CC(=O)N(C)c1c(I)c(C(=O)Nc2ccc(CCCCCCCCCCCCCCC(=O)O)cc2)c(I)c(N(C)C(C)=O)c1I [Example F15-P-MDTA, 4-[[[3,5-Bis(acetylmethylamino)-2,4,6-triiodophenyl]carbonyl]amino]benzenepentadecanoic acid] | 
9.14 | 0.74 | 0.08 | 6.21 | 3.63 | 0.1 | 57.9 | 60.1 | 2.96 | 1.14 | 3.06 | 38.2 | CC(=O)N(C)c1c(I)c(C(=O)Nc2ccc(CCCCCCCCCCC(=O)O)cc2)c(I)c(N(C)C(C)=O)c1I [Example F11-P-MDTA, 4-[[[3,5-Bis(acetylmethylamino)-2,4,6-triiodophenyl]carbonyl]amino]benzeneundecanoic acid] | 
4.83 | 0.96 | 0.04 | 11.5 | 5.83 | 0.33 | 17.9 | 12.9 | 2.25 | 2.47 | 9.54 | 25.4 | CC(=O)N(C)c1c(I)c(C(=O)Nc2ccc(CC(=O)O)cc2)c(I)c(N(C)C(C)=O)c1I [Example F2-P-MDTA, 4-(((3,5-Bis(Acetylmethylamino)-2,4,6-triiodophenyl)carbonyl)amino)-benzeneacetic acid] | 
